Results taken from patent EP4512806A1, “MOLECULAR GLUE DEGRADERS AND USES THEREOF” (Mablink Bioscience, priority 2023, dated 2025).
Blank lines part the entries; values can stand above or below the compound they belong to. Peptide text beside a SMILES is read from it. * marks the point of attachment. Cbz = O=C(OCc1ccccc1)*

What was measured:
[1] = Passive permeability assessment (PAMPA assay); assay type: in vitro ADME; settings: in words
CycK = target: T1, CycK (Homo sapiens, UniProt O75909); experiment: CycK protein quantification by Western Blot in JIMT-1 cells; assay type: cell-based; settings: 2h
T1 construct: endogenous in cells; host or cells: JIMT-1
Method: 1×10^6 JIMT-1 cells were plated in 3mL of DMEM/FBS 90:10 (v/v) in 6-well plates and incubated overnight. Cells were treated with the compound 2384 of the invention with or without the proteasome inhibitor MG-132 (MedChemExpress, Cat HY-13259) for 2h. Cells were harvested, and protein were extracted using complete RIPA buffer (RIPA buffer, 1 mM DTT, 1M NaF, 100 mM sodium orthovanadate, phosphatase inhibitor buffer and protease inhibitors) for 1 hour on ice. Lysate were centrifuged 15min at 12 000g at 4°C. and proteins were mixed with 4x Laemmli Sample Buffer (Bio-Rad), heated at 95 °C for 5 mins and separated by SDS PAGE (PROTEAN TGX Stain-Free Gels, Bio-Rad). Proteins were then transferred onto PVDF membrane (iBlot®2 PVDF stacks, Invitrogen) using the iBlot2 device (Invitrogen) and blocked with TBS buffer (Intercept® Blocking Buffer, LI-COR Biosciences). Primary antibodies were incubated overnight at 4°C and secondary antibodies (IRDye Infrared Dyes from LI-COR Biosciences) 1 hour at room temperature. Used primary antibody were: anti-CycK (cat#A301-939A, Bethyl Laboratories, dil. 1:1000) and anti-β-actin (cat#A5441, Sigma-Aldrich, dil. 1:5000). Membranes were scanned using a c500 Imaging System (Azure Biosystems) and densitometric quantification were performed using imaged software. Protein levels were normalized against β-actin.

BT-474 = experiment: In vitro cytotoxicity assay (MTT); assay type: cell-based, human; settings: 6 days incubation
Text: (§1) Human cancer cell lines used in the present project were purchased from either the American Type Culture Collection (ATCC), The Leibniz Institute DSMZ German Collection of Microorganisms and Cell Cultures GmbH (DSMZ) or the European Collection of Authenticated Cell Cultures (ECACC). For use in experiments, cells were cultivated following good and established cell culture practices, following instructions from the original ATCC/DSMZ/ECACC supplier for cell culture media & supplement, cryopreservation, and subculturing procedures. Cells were incubated under a 5% CO2 atmosphere at 37°C for no longer than 2 months.
(§2) In vitro cytotoxicity of compounds of the disclosure was assessed on several cancerous human cell lines. Cells were plated in 96-well plates at an appropriate density depending on the cell line (between 1000 and 10 000 cells/well in 100µL of appropriate culture media) and incubated at 37°C for 24 hours. Serial dilutions of the tested compound previously dissolved in culture media (50µL) were added, and incubation was carried at 37°C out for 6 days. MTT (5mg/mL in PBS, 20µL, Sigma-Aldrich) was added into the wells, and incubation was continued for 1 to 4 hours at 37°C. Culture media was then carefully removed, and well content was homogeneously dissolved with acidified isopropanol. Absorbance values were measured on a microplate reader using a wavelength of 570 nm (with a reference wavelength of 690 nm). The IC50 concentration values compared to untreated control cells were determined using inhibition dose response curve fitting (GraphPad Prism 9). Exatecan mesylate (cat#HY-13631A) and CR8 (CAS# 294646-77-8; cat#HY-18340) were purchased from MedChemExpress (China).

JIMT-1 = experiment: In vitro cytotoxicity assay (MTT); assay type: cell-based, human; settings: 6 days incubation
Text: as §1, §2

MDA-MB-231 = experiment: In vitro cytotoxicity assay (MTT); assay type: cell-based, human; settings: 6 days incubation
Text: as §1, §2

MDA-MB-453 = experiment: In vitro cytotoxicity assay (MTT); assay type: cell-based, human; settings: 6 days incubation
Text: as §1, §2

NCI-N87 = experiment: In vitro cytotoxicity assay (MTT); assay type: cell-based, human; settings: 6 days incubation
Text: as §1, §2

SKBR-3 = experiment: In vitro cytotoxicity assay (MTT); assay type: cell-based, human; settings: 6 days incubation
Text: as §1, §2

MDR1 = target: T2, MDR1 (Homo sapiens, UniProt P08183); experiment: MDR1 efflux substrate assay (MDCK-MDR1); assay type: in vitro ADME; settings: MDCK-MDR1, 5µM, 60 min, in words
T2 construct: host or cells: MDCK-MDR1
Method: (§3) MDR1 and BCRP efflux substrate assays were conducted in MDCK-MDR1 and MDCK-BCRP in vitro models (Preadyport™, Solvo Biotech) at Symeres (Nederland). Compound of the invention (donor well concentration of 5µM) were incubated in cell monolayer 24-transwell Preadyport system, using Preadyport recommended pH 7.4 assay buffer (donor and receiver wells). After 60 min of incubation (no shaking), samples are collected and suspended into triple volume of 66% cold acetonitrile. Samples are stored at -20°C until thawed, centrifuged and analyzed by LC-MS. Quinidine was used a positive control for the MDR1 assay, and prazosin was used as a positive control for the BCRP assay. Exatecan was used as a control, known not to be an MDR1 substrate. Residual DMSO content from compounds stock solutions was below 1% (v/v). The assay was performed in duplicate. The quantification of test compounds in donor or receptor compartment is conducted using relative LC/MS peak areas (samples of initial incubation solutions are used as a single point calibrator), without any spiked standard samples. The data is used for estimating apparent permeability (Papp) and calculation of efflux ratio.
MDR1 is protein of the tumor cell membrane that pumps the anticancer drugs out of cancer cells, thereby rendering the cell drug-resistant. The Papp (10^-6 cm/s) B (acceptor = basolateral) to A (donor = apical) reflects the susceptibility of a compounds to be pumped out of a tumor and as such a low Papp B→A value is advantageous in the context of oncology. The efflux ratio B/A reflects the overall ability of a compounds to enter MDR1-expressing tumor cells (equilibrium between ability to passively enter the cell A→B and susceptibility to be pumped out of a tumor B→A).

BCRP = target: T3, BCRP (Homo sapiens, UniProt Q9UNQ0); experiment: BCRP efflux substrate assay (MDCK-BCRP); assay type: in vitro ADME; settings: 5µM, 60 min, in words
T3 construct: host or cells: MDCK-BCRP
T3 sequence (Q9UNQ0 1-655): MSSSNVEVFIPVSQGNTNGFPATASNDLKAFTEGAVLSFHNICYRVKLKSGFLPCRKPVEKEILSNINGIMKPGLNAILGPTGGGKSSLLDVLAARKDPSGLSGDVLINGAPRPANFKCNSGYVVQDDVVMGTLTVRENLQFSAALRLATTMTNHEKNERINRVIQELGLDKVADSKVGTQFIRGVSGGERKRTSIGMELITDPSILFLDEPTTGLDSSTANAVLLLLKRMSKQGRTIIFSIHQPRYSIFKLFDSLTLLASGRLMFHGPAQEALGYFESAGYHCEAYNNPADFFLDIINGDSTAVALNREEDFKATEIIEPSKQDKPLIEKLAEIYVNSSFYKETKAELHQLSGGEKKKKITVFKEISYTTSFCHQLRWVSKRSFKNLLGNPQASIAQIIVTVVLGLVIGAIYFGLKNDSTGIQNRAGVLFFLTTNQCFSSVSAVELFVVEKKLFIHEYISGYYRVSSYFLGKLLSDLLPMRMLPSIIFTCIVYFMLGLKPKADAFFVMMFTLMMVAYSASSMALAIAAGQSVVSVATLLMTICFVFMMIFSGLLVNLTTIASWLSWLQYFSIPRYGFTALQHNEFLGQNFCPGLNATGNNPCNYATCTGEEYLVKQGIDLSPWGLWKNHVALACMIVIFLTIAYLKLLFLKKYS
Method: as §3
BCRP, like MDR1, is a protein of the tumor cell membrane that pumps the anticancer drugs out of cancer cells, thereby rendering the cell drug-resistant. This multidrug-resistant protein is particularly expressed in breast and lung cancers. The efflux ratio B/A reflects the overall ability of a compounds to enter BCRP-expressing tumor cells (equilibrium between ability to passively enter the cell A→B and susceptibility to be pumped out of a tumor B→A).

[2] = In vivo mice tolerability assessment; settings: female CD-1 mice, single intravenous 1mg/kg dose, Mean
Method: All animal procedures were performed in accordance with the European Union directive 86/609/EEC. Experiments were performed under individual permit and in accredited animal care facilities.
Mouse tolerability experiments were performed with selected compounds of the disclosure. Female CD-1 mice (n=5 mice per group) were treated with a single intravenous 1mg/kg dose of compound. Vehicle was PBS pH 6.0. Mice were carefully monitored for mortality, external clinical findings, weight loss, behavior and apparent signs of toxicity over the course of 21 days.

T2 sequence (P08183 whole entry): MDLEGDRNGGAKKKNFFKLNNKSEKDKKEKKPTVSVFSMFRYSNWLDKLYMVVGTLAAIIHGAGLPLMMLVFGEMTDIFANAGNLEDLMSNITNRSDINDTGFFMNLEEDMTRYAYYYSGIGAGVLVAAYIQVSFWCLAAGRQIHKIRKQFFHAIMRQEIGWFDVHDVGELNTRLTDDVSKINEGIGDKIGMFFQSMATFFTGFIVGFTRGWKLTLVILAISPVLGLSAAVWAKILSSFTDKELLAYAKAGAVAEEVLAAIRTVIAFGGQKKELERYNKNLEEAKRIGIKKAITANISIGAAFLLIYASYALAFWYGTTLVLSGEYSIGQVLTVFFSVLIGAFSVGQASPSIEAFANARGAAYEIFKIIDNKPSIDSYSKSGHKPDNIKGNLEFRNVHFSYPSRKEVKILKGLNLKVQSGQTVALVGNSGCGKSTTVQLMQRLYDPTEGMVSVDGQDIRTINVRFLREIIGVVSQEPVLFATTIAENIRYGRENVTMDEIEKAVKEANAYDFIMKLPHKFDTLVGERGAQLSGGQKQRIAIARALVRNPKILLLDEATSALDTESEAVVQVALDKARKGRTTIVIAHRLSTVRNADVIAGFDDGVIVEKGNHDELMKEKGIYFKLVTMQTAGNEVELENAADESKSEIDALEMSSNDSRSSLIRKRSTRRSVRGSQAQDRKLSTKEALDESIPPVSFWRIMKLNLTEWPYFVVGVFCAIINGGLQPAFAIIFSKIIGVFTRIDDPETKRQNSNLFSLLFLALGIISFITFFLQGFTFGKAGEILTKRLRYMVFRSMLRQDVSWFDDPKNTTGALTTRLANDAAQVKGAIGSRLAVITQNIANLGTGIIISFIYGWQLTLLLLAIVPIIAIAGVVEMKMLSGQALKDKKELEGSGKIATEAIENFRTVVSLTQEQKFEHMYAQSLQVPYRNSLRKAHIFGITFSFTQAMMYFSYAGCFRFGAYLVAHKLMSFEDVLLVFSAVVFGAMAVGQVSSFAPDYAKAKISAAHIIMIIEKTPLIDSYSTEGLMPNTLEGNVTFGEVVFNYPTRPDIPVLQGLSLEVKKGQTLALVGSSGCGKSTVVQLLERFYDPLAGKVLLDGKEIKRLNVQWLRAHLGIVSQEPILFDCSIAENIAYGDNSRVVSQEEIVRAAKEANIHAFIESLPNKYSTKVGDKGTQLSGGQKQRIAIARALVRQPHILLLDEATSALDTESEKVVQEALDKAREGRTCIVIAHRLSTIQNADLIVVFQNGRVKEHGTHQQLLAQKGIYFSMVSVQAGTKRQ
T1 sequence (O75909 whole entry): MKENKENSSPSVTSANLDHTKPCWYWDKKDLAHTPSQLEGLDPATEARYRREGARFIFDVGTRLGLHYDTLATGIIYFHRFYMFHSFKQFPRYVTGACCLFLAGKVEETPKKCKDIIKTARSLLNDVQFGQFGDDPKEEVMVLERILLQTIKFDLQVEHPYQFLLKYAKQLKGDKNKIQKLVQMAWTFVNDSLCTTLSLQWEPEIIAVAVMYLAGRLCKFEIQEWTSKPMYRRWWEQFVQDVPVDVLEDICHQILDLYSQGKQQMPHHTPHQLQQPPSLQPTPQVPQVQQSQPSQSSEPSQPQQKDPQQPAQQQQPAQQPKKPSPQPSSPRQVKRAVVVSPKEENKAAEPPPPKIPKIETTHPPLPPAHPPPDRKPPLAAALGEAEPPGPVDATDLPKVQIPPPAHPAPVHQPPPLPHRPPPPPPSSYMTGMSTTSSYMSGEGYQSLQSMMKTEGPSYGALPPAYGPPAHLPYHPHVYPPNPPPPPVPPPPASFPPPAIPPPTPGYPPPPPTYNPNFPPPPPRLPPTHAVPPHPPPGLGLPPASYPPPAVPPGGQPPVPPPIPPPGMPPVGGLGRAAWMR
T1 sequence (Q9NYV4 whole entry partner): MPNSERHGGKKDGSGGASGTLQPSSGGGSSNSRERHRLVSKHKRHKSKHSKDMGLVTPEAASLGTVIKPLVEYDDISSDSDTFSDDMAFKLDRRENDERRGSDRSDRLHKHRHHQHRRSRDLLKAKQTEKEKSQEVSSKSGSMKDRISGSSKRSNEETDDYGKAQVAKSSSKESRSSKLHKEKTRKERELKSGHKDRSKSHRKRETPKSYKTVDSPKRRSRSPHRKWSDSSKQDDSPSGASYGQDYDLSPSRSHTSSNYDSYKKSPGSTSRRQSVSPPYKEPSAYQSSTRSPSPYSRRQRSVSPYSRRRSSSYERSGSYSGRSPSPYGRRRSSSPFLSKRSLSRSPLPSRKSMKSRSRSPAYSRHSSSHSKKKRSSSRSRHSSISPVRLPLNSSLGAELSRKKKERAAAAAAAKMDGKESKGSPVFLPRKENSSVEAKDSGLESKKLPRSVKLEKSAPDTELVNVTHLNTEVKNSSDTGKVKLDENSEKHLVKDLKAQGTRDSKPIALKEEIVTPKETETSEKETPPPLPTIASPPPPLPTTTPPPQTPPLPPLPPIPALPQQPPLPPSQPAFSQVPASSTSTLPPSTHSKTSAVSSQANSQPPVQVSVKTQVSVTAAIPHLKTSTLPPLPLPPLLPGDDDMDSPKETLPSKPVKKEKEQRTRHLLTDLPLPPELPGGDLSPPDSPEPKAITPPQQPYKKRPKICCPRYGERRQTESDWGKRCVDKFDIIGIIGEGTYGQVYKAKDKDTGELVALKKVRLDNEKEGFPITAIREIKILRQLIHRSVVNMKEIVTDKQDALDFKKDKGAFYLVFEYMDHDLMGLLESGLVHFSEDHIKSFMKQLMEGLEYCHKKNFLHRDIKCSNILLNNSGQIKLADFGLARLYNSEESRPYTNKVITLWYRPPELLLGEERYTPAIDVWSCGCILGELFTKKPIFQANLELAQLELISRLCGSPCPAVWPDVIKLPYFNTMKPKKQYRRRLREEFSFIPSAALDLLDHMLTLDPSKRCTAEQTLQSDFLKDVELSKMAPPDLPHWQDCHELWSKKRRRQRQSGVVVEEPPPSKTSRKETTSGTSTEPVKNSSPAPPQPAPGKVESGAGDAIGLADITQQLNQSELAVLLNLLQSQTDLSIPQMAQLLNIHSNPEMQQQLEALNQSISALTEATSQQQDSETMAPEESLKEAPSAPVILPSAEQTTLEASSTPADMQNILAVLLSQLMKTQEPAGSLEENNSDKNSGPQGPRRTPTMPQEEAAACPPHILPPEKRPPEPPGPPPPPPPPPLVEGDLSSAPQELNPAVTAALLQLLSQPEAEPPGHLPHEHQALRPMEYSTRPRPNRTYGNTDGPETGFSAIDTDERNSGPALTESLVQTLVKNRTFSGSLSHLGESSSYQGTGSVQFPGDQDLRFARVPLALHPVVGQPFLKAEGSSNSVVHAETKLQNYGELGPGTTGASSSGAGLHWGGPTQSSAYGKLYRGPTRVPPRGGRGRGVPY
T1 sequence (Q16531 whole entry partner): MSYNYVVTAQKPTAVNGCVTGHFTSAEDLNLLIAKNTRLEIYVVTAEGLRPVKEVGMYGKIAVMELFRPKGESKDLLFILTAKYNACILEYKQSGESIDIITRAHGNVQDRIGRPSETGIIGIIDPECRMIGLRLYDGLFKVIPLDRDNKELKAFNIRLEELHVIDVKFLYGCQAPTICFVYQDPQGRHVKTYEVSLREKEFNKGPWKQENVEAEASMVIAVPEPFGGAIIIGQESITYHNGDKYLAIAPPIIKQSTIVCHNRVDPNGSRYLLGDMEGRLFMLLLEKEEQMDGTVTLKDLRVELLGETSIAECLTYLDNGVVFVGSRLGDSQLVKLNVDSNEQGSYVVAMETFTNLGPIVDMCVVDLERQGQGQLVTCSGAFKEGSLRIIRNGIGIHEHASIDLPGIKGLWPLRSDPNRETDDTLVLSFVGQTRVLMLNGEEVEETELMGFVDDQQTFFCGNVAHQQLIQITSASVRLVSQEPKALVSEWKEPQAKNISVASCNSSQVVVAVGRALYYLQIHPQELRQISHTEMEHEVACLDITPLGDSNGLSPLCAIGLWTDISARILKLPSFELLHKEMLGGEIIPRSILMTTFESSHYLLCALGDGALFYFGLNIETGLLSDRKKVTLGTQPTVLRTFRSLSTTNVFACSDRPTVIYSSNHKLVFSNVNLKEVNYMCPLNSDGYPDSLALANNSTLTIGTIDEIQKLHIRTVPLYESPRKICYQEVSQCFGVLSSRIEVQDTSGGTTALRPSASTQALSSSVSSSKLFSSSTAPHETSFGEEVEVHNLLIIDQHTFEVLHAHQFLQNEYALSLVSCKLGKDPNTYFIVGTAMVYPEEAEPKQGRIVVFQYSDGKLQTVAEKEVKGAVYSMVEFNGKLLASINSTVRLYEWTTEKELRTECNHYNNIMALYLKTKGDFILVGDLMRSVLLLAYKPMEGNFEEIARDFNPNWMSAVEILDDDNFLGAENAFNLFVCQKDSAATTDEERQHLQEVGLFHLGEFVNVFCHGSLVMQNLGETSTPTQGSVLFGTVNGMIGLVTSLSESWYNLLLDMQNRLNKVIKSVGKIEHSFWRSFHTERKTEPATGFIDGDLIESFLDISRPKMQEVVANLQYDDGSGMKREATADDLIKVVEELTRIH

Structure (SMILES): CN(C)C/C=C/C(=O)Nc1ccc(C(=O)N2CCC[C@@H](Nc3ncc(Cl)c(-c4c[nH]c5ccccc45)n3)C2)cc1 [THZ-531, reference compound]
CycK protein content (CycK; 1µM final concentration): no impact

Structure (SMILES): Brc1cnn2c(Nc3ccc(CN4CCOCC4)cc3)nc(NC3CCNCC3)nc12 [Compound 2554]
IC50 (BT-474): > 100 nM
IC50 (JIMT-1): > 100 nM
IC50 (MDA-MB-231): > 100 nM
IC50 (MDA-MB-453): > 100 nM
IC50 (NCI-N87): > 100 nM
IC50 (SKBR-3): > 100 nM

Structure (SMILES): Brc1cnn2c(NCc3ccc(-c4ccccn4)cc3)nc(N[C@H]3CCNC3)nc12 [Compound 2657]
IC50 (BT-474): 1.71 nM
IC50 (MDA-MB-231): 0.56 nM
IC50 (MDA-MB-453): 0.77 nM
IC50 (NCI-N87): 0.43 nM
IC50 (SKBR-3): 0.13 nM
average weight change (% initial weight) ([2]; Study Day 1): 0.0 % initial weight
average weight change (% initial weight) ([2]; Study Day 2): 1.3 % initial weight
average weight change (% initial weight) ([2]; Study Day 3): 1.5 % initial weight
average weight change (% initial weight) ([2]; Study Day 4): 1.7 % initial weight
average weight change (% initial weight) ([2]; Study Day 5): 2.3 % initial weight
average weight change (% initial weight) ([2]; Study Day 6): 4.2 % initial weight
average weight change (% initial weight) ([2]; Study Day 7): 3.3 % initial weight
average weight change (% initial weight) ([2]; Study Day 8): 4.2 % initial weight
average weight change (% initial weight) ([2]; Study Day 9): 4.5 % initial weight
average weight change (% initial weight) ([2]; Study Day 10): 7.8 % initial weight
average weight change (% initial weight) ([2]; Study Day 11): 7.7 % initial weight
average weight change (% initial weight) ([2]; Study Day 12): 8.0 % initial weight
average weight change (% initial weight) ([2]; Study Day 13): 7.9 % initial weight
average weight change (% initial weight) ([2]; Study Day 14): 8.0 % initial weight
average weight change (% initial weight) ([2]; Study Day 15): 7.9 % initial weight
average weight change (% initial weight) ([2]; Study Day 16): 9.4 % initial weight
average weight change (% initial weight) ([2]; Study Day 17): 9.3 % initial weight
average weight change (% initial weight) ([2]; Study Day 18): 9.8 % initial weight
average weight change (% initial weight) ([2]; Study Day 19): 10.5 % initial weight
average weight change (% initial weight) ([2]; Study Day 20): 11.4 % initial weight
average weight change (% initial weight) ([2]; Study Day 21): 12.0 % initial weight

Structure (SMILES): CC(C)C[C@@H](C=O)NC(=O)[C@H](CC(C)C)NC(=O)[C@H](CC(C)C)NC(=O)OCc1ccccc1 [MG-132, reference compound] (Cbz-Leu-Leu-Leu-aldehyde)
CycK protein content in combination with proteasome inhibitor (CycK; degrader combined with MG-132): restored the content in cycK protein

Now from value to compound:

passive permeability potential [1]: high
Structure (SMILES): N[C@H]1CCCC[C@@H]1Nc1nc(NCc2ccc(-c3ccccn3)cc2)n2ncc(Br)c2n1 [Compound 2671]

passive permeability potential [1]: moderate
Structure (SMILES): NC[C@H]1CC[C@H](Nc2nc(NCc3ccc(-c4ccccn4)cc3)n3ncc(Br)c3n2)CC1 [Compound 2636]

MDR1 efflux potential (MDR1): low level
BCRP efflux potential (BCRP): low level
Structure (SMILES): CN(CCN)c1nc(NCc2ccc(-c3ccccn3)cc2)n2ncc(Br)c2n1 [Compound 2600]

MDR1 efflux potential (MDR1): low level
BCRP efflux potential (BCRP): low level
Structure (SMILES): N[C@H]1CCN(c2nc(NCc3ccc(-c4ccccn4)cc3)n3ncc(Br)c3n2)C1 [Compound 2655]

passive permeability potential [1]: none
Structure (SMILES): NCCCCNc1nc(NCc2ccc(-c3ccccn3)cc2)n2ncc(Br)c2n1 [Compound 2585]

MDR1 efflux potential (MDR1): low level
BCRP efflux potential (BCRP): low level
Structure (SMILES): CNCCN(C)c1nc(NCc2ccc(-c3ccccn3)cc2)n2ncc(Br)c2n1 [Compound 2605]
